Test results taken from ChEMBL document CHEMBL5726023, “Fused azaheterocyclic compounds and their use as AMPA receptor modulators” (2018).
pIC50: −log10 of the molar value.

Experiment: Calcium Flux Assay: An in vitro assay was used to determine the potency of test compounds as inhibitors of the glutamate response of the channel formed by GluA1o-γ8. To ensure a 1:1 stoichiometry of GluA1o and γ8 subunits in the expressed channel, a fusion of the cDNAs for GRIA1o and CACNG8 was used. Following Shi et al (2009) The stoichiometry of AMPA receptors and TARPs varies by neuronal cell type. Neuron 62(5): 633-640), the C-terminus of the cDNA for GRIA1o was fused to the N-terminus of the cDNA for γ8. The linker sequence was QQQQQQQQQQEFAT. Channels expressed with this construct appear to have similar properties to channels formed by co-expression of GRIA1o with an excess of CACNG8 (Shi et al. 2009). A clonal cell line in HEK293 cells stably expressing this construct, with a geneticin selection marker, was generated for use in this assay.Cell expressing the GRIA1o-CACNG8 fusion construct were grown in a monolayer in 96- or 384-well microtiter plates. They were washed with assay buffer (135 mM NaCl, 4 mM KCl, 3 mM CaCl2, 1 mM MgCl2, 5 mM glucose, 10 mM HEPES, pH 7.4, 300 mOs) using a Biotek EL405 plate washer. The cells were then loaded with a calcium-sensitive dye (Calcium-5 or Calcium-6, Molecular Devices) and the test compounds at a range of concentrations. […]
Type: cell-based

With Cc1cc(-c2c(C(F)(F)F)ccn3cc(C(C)C)nc23)cc2cn[nH]c12 the pIC50 was 10.00.
